Assay results from patent US11533912B2, “Use of cinnamate compounds in the control of fungal diseases of crops” (Institute of Plant Protection, Gansu Academy of …, priority 2019, dated 2022).
Where two headings read alike, the source gives them in different places.

Legend:
[1] = test system: Exserohilum turcicum; assay: Ex vivo mycelial growth, growth rate method; type: cell-based; details: 1 mg/mL
[2] = test system: Phytophthora capsici; assay: Ex vivo mycelial growth, growth rate method; type: cell-based
[3] = test system: Botrytis cinerea; assay: Ex vivo mycelial growth, growth rate method; type: cell-based; details: 1 mg/mL
[4] = test system: Valsa mali; assay: Ex vivo mycelial growth, growth rate method; type: cell-based; details: 1 mg/mL
[5] = test system: F. oxysporum f. sp. vasinfectum; assay: Ex vivo mycelial growth, growth rate method; type: cell-based; details: 1 mg/mL
[6] = test system: Mycosphaerlla melonis; assay: Ex vivo mycelial growth, growth rate method; type: cell-based; details: 1 mg/mL
[7] = test system: zucchini; details: in vivo
From the text: The first application was started on August 26th, at the early onset of powdery mildew (the average disease index is 10.07). The instrument for application was Agrolex HD 400 Model hand operating knapsack sprayer, which employed a cone nozzle. Each agent was formulated into the desired concentrations according to the usage amount of the control clear water. Both sides of the leaves were sprayed evenly so that the leaves were wetted by the liquor without loss. […] Thereafter, applications were conducted every 7 days consecutively for 4 times. 10 days after the last application, the number of disease leaves at each grade of powdery mildew was investigated for the whole plant following the grading standard of 9 grades, to calculate the disease index and the control effect.

[8] = test system: F. graminearum; assay: microbe, parasite or virus in culture; type: cell-based
[9] = test system: cucumber; assay: Crop safety (phytotoxicity) in the cucumber field test; details: at the test doses (triazole control agents: 1500 fold liquid)
[10] = test system: Phytophthora infestans; type: cell-based; details: Phytophthora infestans (second line), 1 mg/mL
[11] = test system: Pyricularia grisea; assay: microbe, parasite or virus in culture; type: cell-based
[12] = test system: Phytophthora infestans; type: cell-based; details: Phytophthora infestans (first line), 1 mg/mL
[13] = test system: Sclerotinia sclerotiorum; assay: Ex vivo mycelial growth, growth rate method; type: cell-based; details: 1 mg/mL
[14] = test system: Rhizoctonia solani; assay: Ex vivo mycelial growth, growth rate method; type: cell-based; details: 1 mg/mL
[15] = test system: C. gossypii; assay: Ex vivo mycelial growth, growth rate method; type: cell-based; details: 1 mg/mL
[16] = test system: Colletotrichum capsici; assay: Ex vivo mycelial growth, growth rate method; type: cell-based; details: 1 mg/mL
[17] = test system: Erysiphe cucurbitacearum or Sphaerotheca cucurbitae; assay: In-vivo control of zucchini powdery mildew in a greenhouse
Method: (2) In-Vivo Determination Method • Zucchini (Variety: Wuwei Xianglin extra-early 1st generation) were cultured in pots in a greenhouse, and inoculated with Erysiphe cucurbitacearum or Sphaerotheca cucurbitae at the stage of 3 to 4 leaves. […] Both sides of the leaves were sprayed evenly with a small hand-held sprayer so that the leaves were wetted by the liquor without loss. Applications were conducted every 7 days consecutively for 4 times. 10 days after the fourth application, the number of disease leaves at each grade of powdery mildew was investigated for the whole plant following the grading standard of 9 grades, to calculate the disease index and the control effect. The computational formula is as below: Disease index=[(Number of disease leaves at each grade×Corresponding grade value)/(Total number of investigated leaves×9)]×100; Control effect=(Disease index of the clear water control−Treated disease index)/Disease index of the clear water control×100.

[18] = test system: damping-off (P. aphanidermatum, P capsici); assay: In-vivo control of pepper damping-off in a greenhouse (sick soil); details: 0.80 mg/mL, 200 mL liquor per pot
Method: (§1) (2) In-Vivo Determination Method • Sick soil of damping-off (P. aphanidermatum, P capsici) was collected from the fields of tomatoes, eggplants and peppers in solar greenhouse, and mixed evenly in equal proportion. Tomatoes (Variety: Song Tian Fen Yang Yang, 100 grains), eggplants (Variety: Lanza No. 2 F1 long eggplant, 100 grains), pepper (Longjiao 2 F1, 100 grains) were seeded quantitatively with the sick soil in pots (diameter: 15 cm) in a greenhouse, additionally with sterile vermiculite as the control (each 100 grains for determining the germination rate). […] The computational formula is as below: Mortality of Seedlings (%)=[number of survival seedlings in the seeded grains−number of seeded grains×(100%−germination rate)]/number of seeded grains×100; Control Effect (%)=(mortality of control seedlings−mortality of treated seedlings)/mortality of control seedlings×100.

[19] = test system: Botryosphaeriana berengeriana; assay: Ex vivo mycelial growth, growth rate method (line 'Botryosphaeriana berengeriana', r23); type: cell-based; details: Botryosphaeriana berengeriana (first line), 1 mg/mL
[20] = test system: E. polygoni; assay: In-vivo control of marrow bean powdery mildew in a greenhouse
Method: (2) In-Vivo Determination Method • Marrow bean (Variety: Thailand Jiadouwang) were cultured in pots in a greenhouse, and inoculated with E. polygoni at the stage of 4 leaves. […] Both sides of the leaves were sprayed evenly with a small hand-held sprayer so that the leaves were wetted by the liquor without loss. Applications were conducted every 7 days consecutively for 4 times. 10 days after the fourth application, the number of disease leaves at each grade of powdery mildew was investigated for the whole plant following the grading standard of 9 grades, to calculate the disease index and the control effect.

[21] = test system: Fusarium graminearum; assay: microbe, parasite or virus in culture; type: cell-based
[22] = test system: F. oxysporum f. sp. lini; assay: Ex vivo mycelial growth, growth rate method; type: cell-based; details: 1 mg/mL
[23] = test system: plant pathogenic fungi; assay: organism not typed; type: cell-based; details: read-out: inhibition rate on mycelial growth, range over 9 fungi
[24] = test system: Coniella diplodiella; assay: Ex vivo mycelial growth, growth rate method; type: cell-based; details: 1 mg/mL
[25] = test system: Thanatephorus cucumeris; assay: Ex vivo mycelial growth, growth rate method; type: cell-based; details: 1 mg/mL
[26] = test system: Blumeria graminis f. sp. trilici; assay: In-vivo control of wheat powdery mildew in a greenhouse; parameters: species or system Blumeria graminis f. sp. trilici on winter wheat
[27] = test system: Pythium aphanidermatum; assay: Ex vivo mycelial growth, growth rate method; type: cell-based; details: 1 mg/mL
[28] = test system: damping-off (P. aphanidermatum, P capsici); assay: In-vivo control of tomato damping-off in a greenhouse (sick soil); details: 0.80 mg/mL, 200 mL liquor per pot
Method: as §1

[29] = test system: F. verticillioide; assay: Ex vivo mycelial growth, growth rate method; type: cell-based; details: 1 mg/mL
[30] = test system: E. cichoracearum; assay: Field efficiency test on cucumber powdery mildew; details: 0.50 mg/mL (active ingredients)
Method: The first application was started on Jun. 15, 2018, and E. cichoracearum was inoculated on June 17th (the diseased leaves were harvested from the solar greenhouse near the military airfield at Xiaguanying town, Yuzhong County, moisturized in the greenhouse for 2 days, then shredded, and filtered over a gauze, the filtrate was sprayed onto both sides of the cucumber leaves with the cone nozzle of an electric sprayer for inoculation). The second, third and fourth applications were conducted on June 23rd, July 2nd, and July 9th respectively, the water consumptions of which were adjusted promptly according to the amount of water desired for spraying evenly onto both sides of the control leaves. 10 days after the fourth application, the number of disease leaves at each grade of powdery mildew was investigated following the grading standard of 9 grades, to calculate the disease index and the control effect.

[31] = test system: Gaeumannomyces graminis var. graminis and G. graminis var. tritici; assay: Ex vivo mycelial growth, growth rate method; type: cell-based; details: 1 mg/mL
[32] = test system: zucchini powdery mildew; assay: Field efficiency test on zucchini powdery mildew; type: in vivo; details: 0.50 mg/mL
[33] = test system: Botryosphaeria berengeriana; assay: Ex vivo mycelial growth, growth rate method (line 'Botryosphaeria berengeriana', r34); type: cell-based; details: Botryosphaeria berengeriana (second line), 1 mg/mL
[34] = mycelial growth, Phytophthora capsici, 1 mg/mL
[35] = F. graminearum (second line), 1 mg/mL
[36] = Fusarium oxysporum, mycelial growth
[37] = Fusarium graminearum, read-out: Inhibition Rate

COC(=O)C=Cc1ccc(OC)c(OC)c1 [Control Compound A, methyl 3,4-dimethoxy cinnamate, reference compound]
Average Diameter of the Colony [1]: 1.37 cm
Inhibition Rate ([1]; mycelial growth): 82.66%
Average Diameter of the Colony ([2]; Phytophthora capsici, 1 mg/mL): 1.97 cm
Inhibition Rate [2, 34]: 75.06%
Average Diameter of the Colony [3]: 2.27 cm
Inhibition Rate ([3]; mycelial growth): 71.27%
Average Diameter of the Colony [4]: 0.00 cm
Inhibition Rate ([4]; mycelial growth): 100%
Average Diameter of the Colony [5]: 2.43 cm
Inhibition Rate ([5]; mycelial growth): 69.24%
Average Diameter of the Colony [6]: 0.67 cm
Inhibition Rate ([6]; mycelial growth): 91.52%
safety for zucchini [7]: safe for zucchini and cucumber
Average Diameter of the Colony [8, 35]: 4.90 cm
Inhibition Rate ([8]; mycelial growth, F. graminearum (second line), 1 mg/mL): 37.98%
phytotoxicity / safety for cucumber [9]: safe for zucchini and cucumber
Average Diameter of the Colony [10]: 0.27 cm
Inhibition Rate ([10]; mycelial growth): 96.58%
Average Diameter of the Colony ([11]; 1 mg/mL): 3.83 cm
Inhibition Rate ([11]; mycelial growth, 1 mg/mL): 51.52%
Average Diameter of the Colony [12]: 2.77 cm
Inhibition Rate ([12]; mycelial growth): 64.94%
Average Diameter of the Colony [13]: 0.00 cm
Inhibition Rate ([13]; mycelial growth): 100%
Average Diameter of the Colony [14]: 0.67 cm
Inhibition Rate ([14]; mycelial growth): 91.52%
Average Diameter of the Colony [15]: 3.83 cm
Inhibition Rate ([15]; mycelial growth): 51.52%

CCOC(=O)/C=C/c1ccc(OC)c(F)c1 [ethyl 3-(3′-fluoro-4′-methoxyphenyl) acrylate]
Average Diameter of the Colony [1]: 0.10 cm
inhibition at 1000 µg/mL ([1]; mycelial growth): 98.4%
Average Diameter of the Colony ([2]; Phytophthora capsici, 1 mg/mL): 1.26 cm
inhibition at 1000 µg/mL [2, 34]: 76.2%
antifungal activity on Phytophthora capsici compared with hymexazol ([2]; supplementary determination results): superior to that of the control agent, hymexazol
Average Diameter of the Colony [3]: 1.35 cm
inhibition at 1000 µg/mL ([3]; mycelial growth): 82%
Average Diameter of the Colony [16]: 0.11 cm
inhibition at 1000 µg/mL ([16]; Colletotrichum truncatum, mycelial growth): 98.4%
Average Diameter of the Colony [4]: 0.85 cm
inhibition at 1000 µg/mL ([4]; Cytospora mali, mycelial growth): 89.2%
Control Effect ([17]; 0.20 mg/mL): 52.71%
Control Effect ([17]; 0.333 mg/mL): 95.60%
Control Effect ([17]; 0.50 mg/mL): 97.11%
control effect on pepper damping-off [18]: 56.47%
Average Diameter of the Colony [19]: 1.19 cm
inhibition at 1000 µg/mL ([19]; mycelial growth): 79.1%
Average Diameter of the Colony [5]: 4.45 cm
inhibition at 1000 µg/mL [5, 36]: 38.5%
Average Diameter of the Colony [6]: 0.37 cm
inhibition at 1000 µg/mL ([6]; mycelial growth): 95.7%
Control Effect ([20]; 0.10 mg/mL): 77.26%
Control Effect ([20]; 0.143 mg/mL): 91.16%
Control Effect ([20]; 0.20 mg/mL): 94.51%
Average Diameter of the Colony ([21]; Fusarium graminearum (first line), 1 mg/mL): 3.26 cm
inhibition at 1000 µg/mL [21, 37]: 39.1%
Average Diameter of the Colony [22]: 7.20 cm
inhibition at 1000 µg/mL [22, 36]: 20%
inhibition at 1000 µg/mL [23]: 82 to 100%
Average Diameter of the Colony [8, 35]: 2.77 cm
inhibition at 1000 µg/mL [8, 37]: 67.8%
Average Diameter of the Colony [24]: 0.00 cm
inhibition at 1000 µg/mL ([24]; mycelial growth): 100%
Average Diameter of the Colony [25]: 2.05 cm
inhibition at 1000 µg/mL ([25]; mycelial growth): 76.2%
Control Effect ([26]; 0.143 mg/mL): 64.75%
Control Effect ([26]; 0.20 mg/mL): 67.60%
Average Diameter of the Colony [27]: 2.60 cm
inhibition at 1000 µg/mL ([27]; mycelial growth): 61.2%
control effect on tomato damping-off [28]: 51.02%
Average Diameter of the Colony [10]: 0.00 cm
Average Diameter of the Colony ([11]; 1 mg/mL): 7.70 cm
inhibition at 1000 µg/mL ([11]; read-out: Inhibition Rate): 14.4%
Average Diameter of the Colony [29]: 2.34 cm
inhibition at 1000 µg/mL ([29]; mycelial growth): 30.8%
Average Diameter of the Colony [12]: 1.40 cm
control effect on cucumber powdery mildew [30]: 78.42%
Average Diameter of the Colony [13]: 2.58 cm
inhibition at 1000 µg/mL ([13]; mycelial growth): 70%
Average Diameter of the Colony [14]: 0.00 cm
inhibition at 1000 µg/mL ([14]; mycelial growth): 100%
Average Diameter of the Colony [31]: 2.29 cm
inhibition at 1000 µg/mL ([31]; mycelial growth): 40%
Control Effect [32]: 85.82%
Average Diameter of the Colony [15]: 0.42 cm
inhibition at 1000 µg/mL ([15]; Colletotrichum gossypii, mycelial growth): 92.2%
Average Diameter of the Colony [33]: 1.72 cm
inhibition at 1000 µg/mL ([33]; mycelial growth): 74.7%
